Assay results: PubChem BioAssay (NCI)
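Cells were grown in 96-well plates and exposed to each compound for 48 hours at five concentrations; endpoints were interpolated linearly between bracketing concentrations, or set to the highest concentration if not reached. Definition used: TGI = concentration required for complete inhibition of growth.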

Columns and labels:
Assay in all cases: inhibition of tumour cell growth, NCI panel, 48 h
[1] = test system: 786-0 renal
[2] = test system: A498 renal
[3] = test system: ACHN renal
[4] = test system: CAKI-1 renal
[5] = test system: CCRF-CEM leukemia
[6] = test system: COLO 205 colon
[7] = test system: DU-145 prostate
[8] = test system: EKVX NSCLC
[9] = test system: HCC-2998 colon
[10] = test system: HCT-116 colon
[11] = test system: HCT-15 colon
[12] = test system: HL-60(TB) leukemia
[13] = test system: HOP-62 NSCLC
[14] = test system: HOP-92 NSCLC
[15] = test system: HT29 colon
[16] = test system: IGROV1 ovarian
[17] = test system: K-562 leukemia
[18] = test system: LOX IMVI melanoma
[19] = test system: M14 melanoma
[20] = test system: MALME-3M melanoma
[21] = test system: MCF7 breast
[22] = test system: MDA-MB-231 breast
[23] = test system: MDA-MB-435
[24] = test system: MDA-N
[25] = test system: NCI-H460 lung
[26] = test system: NCI/ADR-RES ovarian
[27] = test system: OVCAR-3 ovarian
[28] = test system: OVCAR-4 ovarian
[29] = test system: OVCAR-5 ovarian
[30] = test system: OVCAR-8 ovarian
[31] = test system: PC-3 prostate
[32] = test system: RPMI-8226 leukemia
[33] = test system: SF-268 CNS
[34] = test system: SF-295 CNS
[35] = test system: SF-539 CNS
[36] = test system: SK-MEL-2 melanoma
[37] = test system: SK-MEL-28 melanoma
[38] = test system: SN12C renal
[39] = test system: SNB-19 CNS
[40] = test system: SR leukemia
[41] = test system: SW-620 colon
[42] = test system: T-47D breast
[43] = test system: TK-10 renal
[44] = test system: U251 CNS
[45] = test system: UACC-257 melanoma
[46] = test system: UACC-62 melanoma
[47] = test system: UO-31 renal

Measured: TGI

CSC(=NCCCCN=C(NS(=O)(=O)c1ccc(Cl)cc1)SC)NS(=O)(=O)c1ccc(Cl)cc1
> 100 µM: all assays above
